Results reported in patent US9096492B2, “Hydrated N-fullerene amino acids, method for producing the latter, and pharmaceutical compositions on the basis thereof” (priority 2011, dated 2015).
Like-named read-outs stand apart in the source and are kept apart here.

Columns and labels:
[1] = Chronic toxicity in rats, intramuscular 30 days: clinical observation and body weight; conditions: 3, 9, or 20 mg/kg intramuscularly daily for a month
[2] = rat, in vivo

## N-fullerene tris(δ-aminocaproic acid) hydrate [Agent 1]
[1]
  clinical signs of poisoning: no clinical signs of poisoning were observed
[2]; 3 mg/kg
  Alkali hosphatase, Units/L: 143 ± 47 Units/L
  Cholesterol: 4.17 ± 0.68 mmol/L
  Glucose: 7.64 ± 1.56 mmol/L
  Total proten: 71.12 ± 6.66 g/L
[2]; 9 mg/kg
  Alkali hosphatase, Units/L: 159 ± 28 Units/L
  Glucose: 7.18 ± 0.80 mmol/L
  Total protein: 68.94 ± 2.97 g/L
  Total proten: 78.48 ± 8.94 g/L
[2]; 20 mg/kg
  Alkali hosphatase, Units/L: 248 ± 107 Units/L
  Total proten: 72.76 ± 8.11 g/L
  Urea: 9.22 ± 1.56 mmol/L
